Measured values as given in ChEMBL document CHEMBL1201862, “PubChem BioAssay data set” (2004).
Activity calls are given as the source filed them.

Key:
[1] = test system: Vero; test: cells; format: functional; conditions: Chlorocebus sabaeus
[2] = cytotoxicity toward DRD oncogenic fibroblasts, dose response, cell-based, non-viral oncogenic, luminescence (AID 1934); format: functional; conditions: Homo sapiens
[3] = test system: BJ; test: cytotoxicity toward BJ-TERT-LT-ST fibroblasts, dose response, cell-based, RAS-independent, luminescence (AID 1935); format: functional; conditions: Homo sapiens;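 note: BJ fibroblasts immortalized with TERT plus LT and ST oncogenes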
[4] = test system: BJ; test: cytotoxicity toward BJ-TERT fibroblasts, dose response, cell-based, RAS-independent, luminescence (AID 1933); format: functional; conditions: Homo sapiens
[5] = test system: BJ; test: cells; format: functional, cell-based; conditions: Homo sapiens
[6] = test system: SN12K1; test: cells; format: functional; conditions: Homo sapiens
[7] = test system: P388/ADR; test: cells; format: functional; conditions: Mus musculus
[8] = test system: P388; test: cells; format: functional; conditions: Mus musculus
[9] = target: Cytochrome P450 3A4 (Homo sapiens, UniProt P08684);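 note: CYP3A4 tested as one member of a cytochrome P450 panel screen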
[10] = target: Cytochrome P450 2C9 (Homo sapiens, UniProt P11712)
[11] = target: Cytochrome P450 2D6 (Homo sapiens, UniProt P10635);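 note: CYP2D6 member of a cytochrome P450 panel assay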
[12] = target: Cytochrome P450 2C19 (Homo sapiens, UniProt P33261); test: Cytochrome panel assay with activity outcomes. Panel member name: p450-cyp2c19 Compounds with AC50 equal or less than 10 uM are considered active; format: functional
[13] = target: T1, Polyadenylate-binding protein 1 (Homo sapiens, UniProt P11940); test: PABP1 MLLE–PAM2 binding inhibitor potency, dose response, biochemical, fluorescence polarization, FITC-PAM2 peptide (AID 602259); format: functional; conditions: read-out: IC50_Mean
[14] = target: Heat shock protein HSP 90-alpha (Homo sapiens, UniProt P07900); format: functional, organism-based
[15] = target: T1, Polyadenylate-binding protein 1; test: PABP1 MLLE–PAM2 interaction inhibitors, dose response, miRNA deadenylation inhibitor project, biochemical, fluorescence polarization, Cy5-PAM2 peptide, secondary (AID 602260); format: functional; conditions: read-out: IC50_Mean
[16] = target: T2, Short transient receptor potential channel 4 (Mus musculus, UniProt Q9QUQ5); test: mouse TRPC4 channel activators, dose response, cell-based, HEK293 TRPC4/mu-opioid, Fluo-4 calcium (AID 434937); format: functional
T2 sequence (Q9QUQ5 whole entry): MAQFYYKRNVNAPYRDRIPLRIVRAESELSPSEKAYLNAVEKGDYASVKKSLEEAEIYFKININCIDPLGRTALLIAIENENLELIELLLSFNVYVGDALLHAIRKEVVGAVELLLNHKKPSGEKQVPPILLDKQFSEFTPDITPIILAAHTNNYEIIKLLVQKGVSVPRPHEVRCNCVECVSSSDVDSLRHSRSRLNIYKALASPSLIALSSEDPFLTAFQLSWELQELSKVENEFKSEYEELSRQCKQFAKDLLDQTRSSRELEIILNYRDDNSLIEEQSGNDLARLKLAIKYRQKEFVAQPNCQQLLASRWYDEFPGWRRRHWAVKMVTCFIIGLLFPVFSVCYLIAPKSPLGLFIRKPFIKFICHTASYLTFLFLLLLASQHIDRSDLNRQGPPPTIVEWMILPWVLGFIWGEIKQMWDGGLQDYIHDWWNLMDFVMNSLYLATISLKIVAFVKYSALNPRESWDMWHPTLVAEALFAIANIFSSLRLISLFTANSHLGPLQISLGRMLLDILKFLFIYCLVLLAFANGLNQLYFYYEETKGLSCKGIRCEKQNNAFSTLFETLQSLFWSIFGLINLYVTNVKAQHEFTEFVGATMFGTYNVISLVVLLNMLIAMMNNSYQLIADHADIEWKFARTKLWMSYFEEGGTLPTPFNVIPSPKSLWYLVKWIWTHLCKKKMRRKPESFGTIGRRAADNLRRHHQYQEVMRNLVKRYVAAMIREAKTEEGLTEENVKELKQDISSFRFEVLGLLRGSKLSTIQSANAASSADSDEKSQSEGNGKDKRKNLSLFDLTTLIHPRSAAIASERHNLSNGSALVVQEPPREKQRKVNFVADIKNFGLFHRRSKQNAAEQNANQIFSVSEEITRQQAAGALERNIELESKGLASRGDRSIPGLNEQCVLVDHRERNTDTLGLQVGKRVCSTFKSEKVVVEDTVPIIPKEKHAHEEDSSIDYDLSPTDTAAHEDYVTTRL

[17] = target: Paired box protein Pax-8 (Homo sapiens, UniProt Q06710); test: inhibitors of PAX8-driven TPO luciferase reporter, dose response, RMG-I cells, cherry-pick (AID 687027); format: functional, cell-based;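 note: luciferase reporter driven by Pax8 target thyroperoxidase promoter measured by SteadyGlo luminescence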
[18] = Luminescence Cell-Based Dose Retest to Confirm Inhibitors of Cancer Stem Cells. [Related pubchem assays (depositor defined):AID2717, AID2721]; format: functional; conditions: Homo sapiens
[19] = control 3'UTR Renilla luciferase suppression, dose response, counter-screen for Shn3 inhibitor project, cell-based, Clone20-Shn3RL, cherry-picked (AID 624133); format: functional
[20] = cells; format: functional, cell-based
[21] = cells; format: functional, cell-based; remark: listed apart in the source
[22] = Shn3 3'UTR reporter inhibitors, dose response, cell-based, Clone20 osteoblasts, firefly luciferase, cherry-picked (AID 624132); format: functional;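 note: firefly luciferase luminescence from reporter carrying the Shn3 3'UTR in osteoblasts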
[23] = inhibitors of SNCA 5'UTR-driven reporter translation, confirmation, H4 neuroglioma cells, luminescence (AID 1988); format: functional, cell-based
[24] = HepG2 cell cytotoxicity, dose response, cytotoxicity control for Shn3 inhibitor project, CellTiter-Glo, cherry-picked (AID 624134); format: functional, cell-based
[25] = test system: INS1; test: beta cell apoptosis inhibitors, cytokine rescue, dose response, luminescence, retest (AID 449756); format: functional, cell-based; conditions: Rattus norvegicus;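 note: cell death triggered by IL-1 beta plus TNF-alpha plus IFN-gamma mixture; protective hits raise ATP signal compared with cytokine alone wells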
[26] = inhibitors of firefly luciferase expression or activity, dose response, H4 neuroglioma cells, luminescence (AID 1990); format: functional, cell-based
[27] = Luminescence Cell-Based Dose Response HTS to Identify Inhibitors of 5'UTR Stem-Loop Driven Prion Protein mRNA Translation in H4 Neuroglioblastoma Cells. [Related pubchem assays: 1827 (Project Summary), 1813 (Primary HTS)]; format: functional
[28] = cytotoxicity toward NIH3T3 fibroblasts, dose response, counter-screen, cell-based, ATP luminescence, mouse fibroblasts (AID 2010); format: functional;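 note: cells exposed to compound for about 90 hours before reading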
[29] = inhibitors of intracellular T. cruzi replication, confirmation, NIH3T3 host cells, beta-gal luminescence (AID 2044); format: functional, cell-based;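 note: intracellular parasites grown in NIH/3T3 mouse fibroblasts as host cells; luminescent beta-galactosidase reporter signal from transgenic T. cruzi replicating inside host cells; inhibitors lower the luminescence signal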

Chain of Cytochrome P450 2C9 (P11712 whole entry): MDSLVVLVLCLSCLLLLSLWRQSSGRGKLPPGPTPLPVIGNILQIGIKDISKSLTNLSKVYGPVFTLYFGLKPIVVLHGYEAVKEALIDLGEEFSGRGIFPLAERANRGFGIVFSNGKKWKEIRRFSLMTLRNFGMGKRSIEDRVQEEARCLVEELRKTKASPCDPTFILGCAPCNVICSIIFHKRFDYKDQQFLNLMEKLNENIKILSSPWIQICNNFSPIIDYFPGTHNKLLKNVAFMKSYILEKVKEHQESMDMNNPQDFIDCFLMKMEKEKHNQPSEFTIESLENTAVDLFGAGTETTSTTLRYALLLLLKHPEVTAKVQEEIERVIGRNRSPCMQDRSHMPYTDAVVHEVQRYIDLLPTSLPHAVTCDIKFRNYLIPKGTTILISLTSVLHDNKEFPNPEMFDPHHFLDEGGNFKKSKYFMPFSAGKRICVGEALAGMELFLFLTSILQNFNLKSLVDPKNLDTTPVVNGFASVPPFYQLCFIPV
T1 sequence (P11940 whole entry): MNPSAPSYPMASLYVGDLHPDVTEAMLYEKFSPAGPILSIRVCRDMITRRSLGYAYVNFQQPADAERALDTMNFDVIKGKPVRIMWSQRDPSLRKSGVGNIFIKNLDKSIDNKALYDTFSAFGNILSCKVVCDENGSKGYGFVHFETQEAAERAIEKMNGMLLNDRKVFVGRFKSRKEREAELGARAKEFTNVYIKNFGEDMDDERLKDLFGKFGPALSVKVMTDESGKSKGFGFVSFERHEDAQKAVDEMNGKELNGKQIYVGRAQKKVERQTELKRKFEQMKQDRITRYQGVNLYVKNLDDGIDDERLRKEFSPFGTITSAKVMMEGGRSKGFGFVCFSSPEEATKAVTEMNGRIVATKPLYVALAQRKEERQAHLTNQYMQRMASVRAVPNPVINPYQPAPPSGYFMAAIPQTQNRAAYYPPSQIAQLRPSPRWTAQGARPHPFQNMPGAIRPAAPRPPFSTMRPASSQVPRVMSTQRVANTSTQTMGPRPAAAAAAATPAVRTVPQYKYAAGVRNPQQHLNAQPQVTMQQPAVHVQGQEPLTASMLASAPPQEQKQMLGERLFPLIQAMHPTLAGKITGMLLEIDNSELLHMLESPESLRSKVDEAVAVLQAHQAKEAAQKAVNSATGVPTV
Chain of Paired box protein Pax-8 (Q06710 whole entry): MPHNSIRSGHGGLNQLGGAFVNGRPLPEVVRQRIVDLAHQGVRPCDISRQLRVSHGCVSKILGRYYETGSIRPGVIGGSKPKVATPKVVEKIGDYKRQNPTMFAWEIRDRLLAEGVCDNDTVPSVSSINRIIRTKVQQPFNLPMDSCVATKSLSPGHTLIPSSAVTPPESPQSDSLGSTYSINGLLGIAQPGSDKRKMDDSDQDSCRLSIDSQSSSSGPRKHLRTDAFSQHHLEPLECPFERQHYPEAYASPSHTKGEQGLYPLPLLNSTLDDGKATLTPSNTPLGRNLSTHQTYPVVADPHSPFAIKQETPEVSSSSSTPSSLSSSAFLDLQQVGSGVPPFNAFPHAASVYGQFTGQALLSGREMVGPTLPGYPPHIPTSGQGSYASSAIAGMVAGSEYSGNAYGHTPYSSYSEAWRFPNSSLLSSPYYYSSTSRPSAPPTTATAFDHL
Chain of Cytochrome P450 2C19 (P33261 whole entry): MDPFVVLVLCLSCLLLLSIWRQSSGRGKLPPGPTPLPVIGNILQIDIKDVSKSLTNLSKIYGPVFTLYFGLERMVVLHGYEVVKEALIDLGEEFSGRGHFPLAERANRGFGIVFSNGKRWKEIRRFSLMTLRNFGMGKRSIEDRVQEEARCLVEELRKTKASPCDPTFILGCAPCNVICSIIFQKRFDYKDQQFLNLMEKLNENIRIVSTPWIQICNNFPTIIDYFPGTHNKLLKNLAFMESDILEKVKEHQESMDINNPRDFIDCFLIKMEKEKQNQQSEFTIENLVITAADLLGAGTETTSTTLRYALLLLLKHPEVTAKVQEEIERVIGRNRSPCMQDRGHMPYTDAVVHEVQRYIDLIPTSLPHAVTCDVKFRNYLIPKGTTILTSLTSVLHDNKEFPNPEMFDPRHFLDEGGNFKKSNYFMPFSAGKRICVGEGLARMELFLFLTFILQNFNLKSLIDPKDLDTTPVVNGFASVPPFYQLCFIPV
Chain of Cytochrome P450 2D6 (P10635 whole entry): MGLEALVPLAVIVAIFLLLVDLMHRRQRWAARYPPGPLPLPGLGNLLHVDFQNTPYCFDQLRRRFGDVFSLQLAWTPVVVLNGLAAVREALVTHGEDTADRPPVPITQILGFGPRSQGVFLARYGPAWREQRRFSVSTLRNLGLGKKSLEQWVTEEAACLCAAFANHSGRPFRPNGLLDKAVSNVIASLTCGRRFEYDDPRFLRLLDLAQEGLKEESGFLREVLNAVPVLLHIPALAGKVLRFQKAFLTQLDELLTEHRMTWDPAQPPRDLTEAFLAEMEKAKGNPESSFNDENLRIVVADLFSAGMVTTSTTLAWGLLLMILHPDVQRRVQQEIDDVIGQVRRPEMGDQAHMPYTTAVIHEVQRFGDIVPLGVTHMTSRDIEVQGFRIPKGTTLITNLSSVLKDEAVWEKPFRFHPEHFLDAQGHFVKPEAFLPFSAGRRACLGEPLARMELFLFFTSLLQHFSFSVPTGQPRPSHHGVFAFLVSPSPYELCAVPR
Chain of Cytochrome P450 3A4 (P08684 whole entry): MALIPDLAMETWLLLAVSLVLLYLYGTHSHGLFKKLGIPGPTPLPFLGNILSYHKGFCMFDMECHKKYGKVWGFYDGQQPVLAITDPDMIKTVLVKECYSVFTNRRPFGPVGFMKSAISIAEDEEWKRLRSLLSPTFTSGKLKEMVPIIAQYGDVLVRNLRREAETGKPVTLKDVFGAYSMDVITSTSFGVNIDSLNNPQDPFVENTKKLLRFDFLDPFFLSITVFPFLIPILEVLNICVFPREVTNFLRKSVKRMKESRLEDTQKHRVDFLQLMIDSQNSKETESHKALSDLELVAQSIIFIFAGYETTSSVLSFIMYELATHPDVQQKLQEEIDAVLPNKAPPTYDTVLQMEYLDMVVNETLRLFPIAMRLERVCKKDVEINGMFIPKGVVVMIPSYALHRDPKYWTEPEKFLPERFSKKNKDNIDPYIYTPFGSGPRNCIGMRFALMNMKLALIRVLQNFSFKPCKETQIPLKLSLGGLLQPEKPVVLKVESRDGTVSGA

With `CCOC(=O)C1=C(N)N=C(N)C1=Nc1ccc(OC)cc1` the CC50 [1] was 11.1 µM (active).
For `CC(/C=N/NC(=O)c1[nH]nc2c1CCC2)=C\c1ccccc1`, the EC50 [2] was 0.43 µM (active), the EC50 [3] was 1.03 µM (inconclusive) and the CC50 [1] was < 0.05 µM (active). For the same molecule, the EC50 [4] was 0.346 µM (inconclusive) and the EC50 [5] was 25.5 µM (inconclusive).
For `Cc1cc(-c2ccc(/N=N/c3ccc4c(S(=O)(=O)O)cc(S(=O)(=O)O)c(N)c4c3O)c(C)c2)ccc1/N=N/c1ccc2c(S(=O)(=O)O)cc(S(=O)(=O)O)c(N)c2c1O`, the GI50 [6] was > 100 µM (inactive), the GI50 [7] was > 100 µM (inactive) and the GI50 [8] was > 100 µM (inactive).
In the case of `C=C1CCCC(C)(C)[C@@H]1CC/C(C)=C/Cn1c2cccc(=O)c-2nc2ccccc21`, the GI50 [6] is reported as 1.48 µM (inactive), the GI50 [7] is reported as 0.229 µM (active) and the GI50 [8] is reported as 0.569 µM (active).
In the case of `O=C(c1cnn(-c2ccccc2)c1)c1ccc2ccccc2c1O`, the AC50 [9] is reported as 17.8 µM (inconclusive), the AC50 [10] is reported as “inconclusive” and the AC50 [11] is reported as 7.08 µM (inconclusive).
In the case of `C[C@@H]1CCC[C@H](C)N1`, the AC50 [12] is reported as “inconclusive” and the AC50 [10] is reported as “inconclusive”.
For `Cc1cc2cc(CNC(=O)c3ccc(C)c([N+](=O)[O-])c3)ccc2[nH]1`, the IC50 [13] was > 66 µM (inactive), the AC50 [14] was 11 µM (active) and the IC50 [15] was > 66 µM (inactive).
In the case of `CCCN(CCC)CCCNc1ccc2nnc(-c3ccc(F)cc3)n2n1`, the EC50 [16] is reported as 0.596 µM (active).
With `C=Cc1cc(OC)c2c(c1)c(=O)oc1c2cc(OC)c2c(O)ccc(C3OC(C)C(O)C(C)(O)C3O)c21` (stereo unspecified) the GI50 [6] was 0.0269 µM (active), the GI50 [7] was 0.0225 µM (active) and the AC50 [17] was < 0.26 µM (active). For the same molecule, the GI50 [8] was 0.0225 µM (active).
With `CCOC(=O)c1cnc(-n2nc(C)cc2C)nc1NNc1nc(-c2ccccc2)cc(-c2ccccc2)n1` the AC50 [18] was 1.88 µM (active), the AC50 [19] was 7.39 µM (active) and the EC50 [20] was > 350 µM (not active). The EC50 [21] was > 350 µM (not active), the AC50 [22] was 3.84 µM (active) and the EC50 [23] was 8.83 µM (active). The AC50 [24] was 48.5 µM (active), the AC50 [25] was 2.69 µM (active) and the EC50 [26] was 8.48 µM (active). The EC50 [27] was 12.6 µM (active).
For `O=c1n(CC2CO2)c(=O)n(CC2CO2)c(=O)n1CC1CO1` (stereo unspecified) [TEROXIRONE], the GI50 [6] was 35.6 µM (inactive), the GI50 [7] was 1.91 µM (inactive) and the GI50 [8] was 1.61 µM (inactive).
With `Cc1ccc(C)c(OCCCCn2ccnc2)c1` the EC50 [28] was > 60 µM (not active), the EC50 [29] was 2.04 µM (active) and the EC50 [16] was 4.73 µM (active).
